Common to all, as to format: cell-based
In one experiment the test system is Human neutrophils. Briefly: Modulation of neutrophil elastase production. The note with it: test compound 50 μM; fMLP 0.1 μM, cytochalasin B 5 mg/L; blood from 3 donors. From the text:
The neutrophil granulocyte is a key element of the inflammatory process. The neutrophils migrate to the site of inflammation and can be activated to release toxic products, including proteolytic enzymes such as elastase. […] Elastase is a major secreted product of activated neutrophils and is a major contributor to the destruction of tissue in inflammatory disease. Several bioassays based on the repression of secretion of elastase, have been described and used for the detection of anti-inflammatory products (Johansson, […]. Nat. Prod. 65: 32-41). […] The neutrophils are activated by addition of the bacterial product N-formyl methionyl-leucyl-phenylalanine (fMLP) and cytochalasin B, a stimulator of secretion. The amount of elastase secreted is determined by measuring the reaction of elastase with the chromogenic substrate succinyl-alanyl-alanyl-valyl-nitroanilide ([…]), which generates 4-nitroaniline after cleavage by elastase. […] Human neutrophils are isolated by applying whole heparinized blood to a Histopaque column and collecting the granulocytes by centrifugation. […] The total volume of the reaction mixture is 0.8 mL and concentrations specified are the final concentrations in the mixture. […] Neutrophil preparations from blood from 3 different donors were used in parallel. All samples were measured in duplicate. Results are given as % repression of activation of neutrophils in the following Table 5.

In experiment [1] the test system is Propionibacterium acnes EG7NS. The experiment is described as follows: MIC by anaerobic broth microdilution (WCB, NCCLS). The conditions noted are these: 48 h. The protocol: (§1) MIC values towards strains of propionibacteria were obtained by broth microdilution using WCB (Anaerobe Broth MIC, Difco) according to NCCLS guidelines (National Committee for Clinical Laboratory Standards. Methods for anti-microbial susceptibility testing of anaerobic bacteria, 5th ed.; approved standard. NCCLS publication no. M11-A5. NCCLS, Wayne, Pa., 2001). Microtitre plates were loaded into 7-L GENbox anaerobic incubation jars (BioMérieux, cat. no. 96 128) fitted with anaerobic atmosphere generators (BioMérieux, cat. no. 96 124) and a Dry Anaerobic Indicator Strip (BBL, cat. no. 271051). Under these conditions, an O2 concentration <0.1% was achieved by 2.5 h, and a CO2 concentration >15% by 24 h. MIC values were read after incubation at 35-37° C. for 48 h (Table 3).
A general note: In broth dilution the organism is exposed to a series of concentrations in liquid medium.

Experiment [2] concerns Propionibacterium acnes SW101T. Briefly: MIC by anaerobic broth microdilution (WCB, NCCLS). The conditions noted are these: code K: Propionibacterium acnes SW101T, 35-37° C., 48 h. The protocol:
as §1

In experiment [3] the test system is Haemophilus influenzae 12214. The experiment is described as follows: MIC by broth microdilution (CAMHB + 5% Fildes enrichment, NCCLS). The note with it: code G: Haemophilus influenzae 12214. The protocol:
(§2) MIC values for non-anaerobes were obtained by broth microdilution using CAMHB (BBL) according to NCCLS guidelines (National Committee for Clinical Laboratory Standards. Methods for dilution antimicrobial susceptibility tests for bacteria that grow aerobically, 5th ed. Approved standard M7-A6. NCCLS, Wayne, Pa., 2003). Drugs were dissolved in DMSO prior to dispensing into 96-well microtitre plates; the concentration of DMSO in assay wells never exceeded 2% (v/v). CAMHB was supplemented with 5% (v/v) horse serum (Sigma, cat. no. H-1270) in lieu of laked horse blood for cultivation of Streptococcus pneumoniae, and with 5% (v/v) Fildes enrichment (BBL, cat. no. 220810) supernate in lieu of Haemophilus Test Medium and additives for cultivation of Haemophilus influenzae (Pankuch G A, Hoellman D B, Lin G, Bajaksouzian S, Jacobs M R, Appelbaum P C. Activity of HMR 3647 compared to those of five agents against Haemophilus influenzae and Moraxella catarrhalis by MIC determination and time-kill assay. Antimicrob. Agents Chemother. November 1998; 42(11): 3032-4). Activities expressed as the minimal inhibitory concentrations (MICs) (μg/ml) are given in the following Table 3, and the microorganisms used for testing are listed in Table 2 below.

Experiment [4] deals with Haemophilus influenzae QK50. The experiment is described as above. The note with it: code H: Haemophilus influenzae QK50. The protocol:
as §2

Experiment [5] deals with Streptococcus pneumoniae 1/1. Briefly: MIC by broth microdilution (CAMHB + 5% horse serum, NCCLS). The conditions noted are these: code D: Streptococcus pneumoniae 1/1. The protocol:
as §2

The test system of experiment [6] is Streptococcus pneumoniae Tupelo. Described as above. The conditions noted are these: code F: Streptococcus pneumoniae Tupelo. The protocol:
as §2

The test system of experiment [7] is Streptococcus pneumoniae SL199T. The experiment is described as above. The conditions noted are these: code E: Streptococcus pneumoniae SL199T. The protocol: as §2
Experiment [8] relates to Escherichia coli ATCC 25922. Briefly: MIC by broth microdilution (CAMHB, NCCLS). The note with it: code C: Escherichia coli ATCC 25922. The protocol:
as §2

The test system of experiment [9] is Staphylococcus aureus 1086. The experiment is described as follows: MIC by broth microdilution (CAMHB, NCCLS). The note with it: code B: Staphylococcus aureus 1086. The protocol:
as §2

Experiment [10] has as its system Staphylococcus aureus ATCC 29213. The experiment is described as follows: MIC by broth microdilution (CAMHB, NCCLS). The conditions noted are these: code A: Staphylococcus aureus ATCC 29213. The protocol:
as §2

Where [11] appears, read: Cutibacterium acnes, read-out: MIC.
The mark [12] stands for this setting: Cutibacterium acnes, code I: Propionibacterium acnes EG7NS, anaerobic, 35-37° C., read-out: MIC.
[13] abbreviates: code I: Propionibacterium acnes EG7NS, anaerobic, 35-37° C.

The values below come from patent publication US7524823B2, “Macrolides” (Basilea Pharmaceutica AG, priority 2005, dated 2009).

≈ marks a conversion by molar mass, not a printed value. Where two headings read alike, the source gives them in different places. Bounds are passed on as bounds.

For `CC[C@H]1OC(=O)[C@H](C)[C@@H](O[C@H]2C[C@@](C)(OC)[C@@H](O)[C@H](C)O2)[C@H](C)[C@@H](O[C@@H]2O[C@H](C)C[C@H](N(C)C)[C@H]2O)[C@](C)(O)C[C@@H](C)C(=O)[C@H](C)[C@@H](O)[C@]1(C)O` [Erythromycin, reference compound], the “Average repression of activation (%)” value with Human neutrophils came out at 5 ± 0.30%. The MIC was 0.125 µg/mL (≈ 0.17 µM) in [1] (Cutibacterium acnes, EG7NS); above 32 µg/mL in experiment [2] (setting [11]); 4 µg/mL in [3] (read-out: MIC); 2 µg/mL in [4] (read-out: MIC); at most 0.06 µg/mL in experiment [5] (read-out: MIC); 8 µg/mL in experiment [6] (read-out: MIC). Further, the MIC in experiment [7] (read-out: MIC) was above 32 µg/mL; in experiment [8] (ATCC25922, read-out: MIC), above 32 µg/mL; in [9] (read-out: MIC) it was above 32 µg/mL; in [10] (ATCC29213, read-out: MIC), 0.5 µg/mL (≈ 0.681 µM).

Regarding `CC[C@H]1OC(=O)[C@H](C)[C@@H](O[C@H]2C[C@@](C)(OC)[C@@H](O)[C@H](C)O2)[C@H](C)[C@@H](O[C@@H]2O[C@H](C)C[C@H](N(C)C)[C@H]2O)[C@](C)(OC)C[C@@H](C)C(=O)[C@H](C)[C@H]2[C@H](SCCn3cnc4c(N)ncnc43)C(=O)O[C@@]21C` [Example 1, (3S, 3aR, 4R, 6R, 8R, 9R, 10S, 11S, 12R, 15R, 15aS)-3-[[2-[6-amino-9H-purin-9-yl]ethyl]thio]-11-[[2,6-dideoxy-3-C-methyl-3-O-methyl-α-L-ribo-hexopyranosyl]oxy]-15-ethyldecahydro-8-methoxy-4,6,8,10,12,15a-hexamethyl-9-[[3,4,6-trideoxy-3-(dimethylamino)-β-D-xylo-hexopyranosyl]oxy]-2H-furo [2,3-c]oxacyclotetradecin-2,5,13 (3H,6H)-trione], in the experiment on Human neutrophils, the “Average repression of activation (%)” value was found to be 19 ± 0.6%. In addition, the MIC in experiment [1] (setting [12]) is at most 0.06 µg/mL; in experiment [2] (setting [11]), 1 µg/mL (≈ 1.04 µM); in [3] (read-out: MIC), 1 µg/mL; in [4] (read-out: MIC), 0.5 µg/mL; in experiment [5] (read-out: MIC), at most 0.06 µg/mL; in experiment [6] (read-out: MIC) it was 0.5 µg/mL. Also, the MIC in experiment [7] (read-out: MIC) is 0.125 µg/mL; in [8] (ATCC25922, read-out: MIC) it was at least 32 µg/mL; in experiment [9] (read-out: MIC) it was at least 32 µg/mL; in experiment [10] (ATCC29213, read-out: MIC), 1 µg/mL (≈ 1.04 µM).

Consider `CC[C@H]1OC(=O)[C@H](C)[C@@H](O[C@H]2C[C@@](C)(OC)[C@@H](O)[C@H](C)O2)[C@H](C)[C@@H](O[C@@H]2O[C@H](C)C[C@H](N(C)C)[C@H]2O)[C@](C)(OC)C[C@@H](C)C(=O)[C@H](C)[C@H]2[C@H](SCC(=O)Nc3cccc4cccnc34)C(=O)O[C@@]21C` [Example 25], for which the MIC result was “<=0.06 μg/ml” in experiment [1] (setting [13]); 4 µg/mL (≈ 4.05 µM) in experiment [2]; 4 µg/mL in [3]; 4 µg/mL in experiment [4]; “<=0.06 μg/ml” in [5]; 0.5 µg/mL in [6]. Besides, the MIC in experiment [7] is 1 µg/mL; in experiment [8], above 32 µg/mL; in [9], 16 µg/mL (≈ 16.2 µM); in experiment [10] it was 1 µg/mL (≈ 1.01 µM).

Consider `CC[C@H]1OC(=O)[C@H](C)[C@@H](O[C@H]2C[C@@](C)(OC)[C@@H](O)[C@H](C)O2)[C@H](C)[C@@H](O[C@@H]2O[C@H](C)C[C@H](N(C)C)[C@H]2O)[C@](C)(OC)C[C@@H](C)C(=O)[C@H](C)[C@H]2[C@H](SCC(=O)c3ccc(N(CC)CC)cc3)C(=O)O[C@@]21C` [Example 26], for which the MIC in [1] (setting [13]) was 0.125 µg/mL (≈ 0.126 µM); in experiment [2], above 32 µg/mL; in experiment [3], above 32 µg/mL; in [4], 16 µg/mL; in experiment [5] it was 0.125 µg/mL; in experiment [6], above 32 µg/mL. In addition, the MIC in experiment [7] was above 32 µg/mL; in experiment [8], above 32 µg/mL; in [9], above 32 µg/mL; in [10], 2 µg/mL (≈ 2.01 µM).

`CC[C@H]1OC(=O)[C@H](C)[C@@H](O[C@H]2C[C@@](C)(OC)[C@@H](O)[C@H](C)O2)[C@H](C)[C@@H](O[C@@H]2O[C@H](C)C[C@H](N(C)C)[C@H]2O)[C@](C)(OC)C[C@@H](C)C(=O)[C@H](C)[C@H]2[C@H](SCC(=O)c3ccc(OC)cc3OC)C(=O)O[C@@]21C` [Example 27]: the MIC result in experiment [1] (setting [13]) was “<=0.06 μg/ml”; in [2], above 32 µg/mL; in experiment [3], 8 µg/mL; in experiment [4], 8 µg/mL; in [5], “<=0.06 μg/ml”; in experiment [6] it was 4 µg/mL. For the same compound, the MIC in [7] was 4 µg/mL; in experiment [8], above 32 µg/mL; in [9], above 32 µg/mL; in experiment [10] it was 1 µg/mL (≈ 1.02 µM).

For the compound `CC[C@H]1OC(=O)[C@H](C)[C@@H](O[C@H]2C[C@@](C)(OC)[C@@H](O)[C@H](C)O2)[C@H](C)[C@@H](O[C@@H]2O[C@H](C)C[C@H](N(C)C)[C@H]2O)[C@](C)(OC)C[C@@H](C)C(=O)[C@H](C)[C@H]2[C@H](SCC(=O)c3csc4ccccc34)C(=O)O[C@@]21C` [Example 28], the MIC in [1] (setting [13]) was 0.125 µg/mL (≈ 0.128 µM); in experiment [2] it was 8 µg/mL (≈ 8.18 µM); in experiment [3], 8 µg/mL; in experiment [4] it was 16 µg/mL; in experiment [5], 0.25 µg/mL; in experiment [6], 4 µg/mL. For the same compound, the MIC in experiment [7] was 4 µg/mL; in [8], above 32 µg/mL; in experiment [9] it was 16 µg/mL (≈ 16.4 µM); in [10] it was 2 µg/mL (≈ 2.04 µM).

On to `CC[C@H]1OC(=O)[C@H](C)[C@@H](O[C@H]2C[C@@](C)(OC)[C@@H](O)[C@H](C)O2)[C@H](C)[C@@H](O[C@@H]2O[C@H](C)C[C@H](N(C)C)[C@H]2O)[C@](C)(OC)C[C@@H](C)C(=O)[C@H](C)[C@H]2[C@H](SCC(=O)c3ccc4c(c3)OCO4)C(=O)O[C@@]21C` [Example 29], for which the MIC result in experiment [1] (setting [13]) is “<=0.06 μg/ml”; in [2], above 32 µg/mL; in experiment [3], 4 µg/mL; in experiment [4] it was 4 µg/mL; in experiment [5], “<=0.06 μg/ml”; in [6], 4 µg/mL. For the same compound, the MIC in experiment [7] is 4 µg/mL; in [8], 32 µg/mL (≈ 33.1 µM); in experiment [9] it was above 32 µg/mL; in [10] it was 1 µg/mL (≈ 1.03 µM).

As to `CC[C@H]1OC(=O)[C@H](C)C(=O)[C@H](C)[C@@H](O[C@@H]2O[C@H](C)C[C@H](N(C)C)[C@H]2O)[C@](C)(OC)C[C@@H](C)C(=O)[C@H](C)[C@H]2N(CCCCn3cnc(-c4cccnc4)c3)C(=O)O[C@]12C` [Telithromycin, reference compound], the MIC is at most 0.06 µg/mL in experiment [1] (setting [12]); 16 µg/mL (≈ 19.7 µM) in experiment [2] (setting [11]); 2 µg/mL in experiment [3] (read-out: MIC); 1 µg/mL in experiment [4] (read-out: MIC); at most 0.06 µg/mL in [5] (read-out: MIC); 0.5 µg/mL in experiment [6] (read-out: MIC). Besides, the MIC in experiment [7] (read-out: MIC) is at most 0.06 µg/mL; in [8] (ATCC25922, read-out: MIC), above 32 µg/mL; in [9] (read-out: MIC) it was 0.25 µg/mL (≈ 0.308 µM); in [10] (ATCC29213, read-out: MIC) it was 0.25 µg/mL (≈ 0.308 µM).
